Values after ≈ are worked out from the molar mass of the structure shown.

The term kinetic solubility denotes solubility judged after dilution from a stock solution rather than from solid.

For the data set the following is noted: buffer; pH 7.4; 200.0 µM.
Consider `COc1ccc(OC)c2sc(N3CCc4ccccc4C3)nc12`, for which the kinetic solubility was found to be 0.6 µg/mL (≈ 1.84 µM).

For the compound `O=C(COc1ccccc1F)N1CCCc2ccccc21`, the kinetic solubility is greater than 42.8 µg/mL. Turning to `Cc1ccc(C)c(NC(=O)CCN2CCN(C)CC2)c1`, the kinetic solubility is greater than 41.3 µg/mL. Under `C/C(=C\c1ccc(Br)cc1)C(=O)c1c(C)cc(C)[nH]c1=O` stands greater than 51.9 µg/mL; under `CCC(C(=O)Nc1nc(C)c(C(=O)OC)s1)c1ccccc1` (configuration not stated), 22.6 µg/mL (≈ 71 µM).

As to `O=C(CN1C(=O)c2cccc3cccc1c23)NC1CCCCC1`, the solubility (kinetic) came out at 1.8 µg/mL (≈ 5.84 µM). Compound `O=C(CCNC(=O)c1ccco1)Nc1ccc(OC(F)F)cc1` had a kinetic solubility of 43.6 µg/mL (≈ 134 µM). `CSCCC1COC(c2cccs2)=N1` (configuration not stated): the solubility (kinetic) came out at 29 µg/mL (≈ 128 µM). Under `O=c1[nH]cccc1-c1nc2ccccc2n1Cc1cccc(F)c1` stands 2.4 µg/mL (≈ 7.52 µM); under `COc1ccc(Cl)cc1NC(=S)NCc1cccnc1`, greater than 46.2 µg/mL; under `CC(C)Sc1cc(Cl)nc(NC(=O)Nc2ccccc2)n1`, 0.4 µg/mL (≈ 1.24 µM). With `CN1C(c2ccccc2)CC(=NO)CC1c1ccccc1` (configuration not stated), the kinetic solubility amounted to 1.4 µg/mL (≈ 4.99 µM). Under `CC1CCCC(C)N1C(=O)COC(=O)c1c[nH]c2ccccc12` (configuration not stated) stands 8.1 µg/mL (≈ 25.8 µM); under `Cc1onc(-c2c(F)cccc2Cl)c1C(=O)N(C)C1CCCCC1`, greater than 52.6 µg/mL. `CCOc1ccccc1NC(=O)COC(=O)c1nc2nccc(C)n2n1` yielded a kinetic solubility greater than 53.3 µg/mL. Take `COc1ccccc1NC(=O)c1ccc2nsnc2c1`: the kinetic solubility worked out at 39.6 µg/mL (≈ 139 µM). `Cc1ccc2c(Cl)c(C(=O)NC3CC3)sc2c1` registered a kinetic solubility of less than 0.6 µg/mL.

Regarding `O=Cc1ccc(OCCCOc2cccc3cccnc23)cc1`, the kinetic solubility was found to be 37.7 µg/mL (≈ 123 µM). The value for `Cc1[nH]c2ccc(C(=O)NCCCN3CCCC3)cc2c1C` was greater than 44.9 µg/mL; that for `Nc1ncccc1OCc1ccc(Br)cc1` was 37.3 µg/mL (≈ 134 µM). Compound `COc1cc(NC(=O)NC2Cc3ccccc3C2)cc(OC)c1` displayed a kinetic solubility of less than 0.3 µg/mL.

As to `COc1ccc(CCN(C)C2CC(=O)N(c3ccccc3)C2=O)cc1OC` (configuration not stated), the solubility (kinetic) is greater than 55.3 µg/mL. The value for `O=C(Nc1ccc2c(c1)OCCO2)C1CC(O)CN1C(=O)Nc1ccccc1` (configuration not stated) was greater than 57.5 µg/mL. Under `COc1ccccc1NC(=O)COc1cccnc1[N+](=O)[O-]` stands 4.3 µg/mL (≈ 14.2 µM); under `CC1CN(C(=O)CS(=O)(=O)Cc2ccc(Cl)cc2)CC(C)O1` (configuration not stated), 46.8 µg/mL (≈ 135 µM); under `O=C(CN1C(=O)NC(c2ccccc2)(c2ccccc2)C1=O)Nc1ccc(N2CCOCC2)cc1`, 2.6 µg/mL (≈ 5.53 µM). In turn, `COc1ccc(CSc2nc(C)cc(C)c2C#N)cc1` came in with a kinetic solubility of 2.7 µg/mL (≈ 9.49 µM). For `COc1ccc(OCC(=O)OC2CCCN(C)C2)cc1.Cl` (configuration not stated), the kinetic solubility was greater than 47.4 µg/mL. The compound `Cn1ccnc1CC(O)(c1ccccc1)c1ccccc1` displayed a kinetic solubility of 20.4 µg/mL (≈ 73.3 µM). Under `COc1ccccc1/C=N/OCc1ccc(C#N)cc1` stands 0.9 µg/mL (≈ 3.38 µM). Take `CC(=O)c1ccc(NC(=O)c2onc(C)c2Cl)cc1`: the kinetic solubility is 6.8 µg/mL (≈ 24.4 µM).

The compound `C=C(C)Cn1c(CCNC(=O)c2ccco2)nc2ccccc21` gave a kinetic solubility greater than 46.4 µg/mL. `Cc1sc2ncnc(N(C)C3CCCCC3)c2c1C`: the kinetic solubility was determined as 1.1 µg/mL (≈ 3.99 µM).

Compound `Cc1ccc(NC(=S)Nc2ccccn2)cc1C` displayed a solubility (kinetic) of 0.4 µg/mL (≈ 1.55 µM). Under `O=C(Cc1ccccc1F)OCN1C(=O)c2ccccc2C1=O` stands 47 µg/mL (≈ 150 µM).

On to `CCOC(=O)c1cc2c(ccn2C)n1Cc1ccccc1Cl`, for which the kinetic solubility is less than 0.3 µg/mL. Compound `O=S(=O)(c1ccc(-c2ccccc2)cc1)N1CCCC1` registered a solubility (kinetic) of 3 µg/mL (≈ 10.4 µM). Under `CCOc1ccccc1NC(=O)N1CCCC1C(=O)NCc1ccco1` (configuration not stated) stands 48.2 µg/mL (≈ 135 µM); under `CC(C)Cn1c(N)c(C(=O)COC(=O)c2cccn2C)c(=O)n(C)c1=O`, greater than 54.4 µg/mL; under `Oc1cccc2ccc(N3CCOCC3)nc12`, greater than 34.5 µg/mL. The value for `CS(=O)(=O)N1CCN(C(=O)CSc2ccccc2)CC1` was greater than 47.2 µg/mL; that for `COc1ccc(S(=O)(=O)NCCc2ccccc2)c2cccnc12` was greater than 51.4 µg/mL. `O=[N+]([O-])c1ccc(Oc2ccc(OCc3ccccc3)cc2)nc1` had a kinetic solubility of less than 0.3 µg/mL.

With `COC(=O)c1ccc(CNC(=O)c2coc3ccccc3c2=O)cc1`, the kinetic solubility turned out to be 3.7 µg/mL (≈ 11 µM).

Consider `CC1CC(C)CN(C(=O)/C=C/c2ccc([N+](=O)[O-])s2)C1` (configuration not stated), for which the solubility (kinetic) stood at 5.8 µg/mL (≈ 19.7 µM). The value for `CCCN(Cc1ccco1)S(=O)(=O)c1ccc(OC)c(OC)c1` was 41.3 µg/mL (≈ 122 µM). Under `O=C1NCC(NC(=O)C(F)(F)F)c2cc3c(cc21)OCO3` (configuration not stated) stands greater than 45.3 µg/mL. The value for `Cc1ccc(-c2cnco2)cc1` was less than 0.3 µg/mL; that for `Cc1ccc2nc3c(nc2c1C)C(O)=C3O` was 24.7 µg/mL (≈ 115 µM); that for `COc1ccc(-n2nc(C)c3sc(C)nc3c2=O)cc1` was greater than 43.1 µg/mL. Consider `O=C(CN1CCOCC1)NNC(=O)c1ccc(Cl)cc1`, for which the solubility (kinetic) was greater than 44.7 µg/mL. The value for `CCN(CC)C(=O)CSc1nnc(SC(C)C(=O)NC2CC2)s1` (configuration not stated) was greater than 56.2 µg/mL. The value for `CCc1ccc(-c2cc(C(=O)O)c3ccccc3n2)s1` was greater than 42.5 µg/mL; that for `CCCNC(=O)c1oc2ccc3c(c2c1C)C=CC(C)(C)O3` was 14.2 µg/mL (≈ 47.4 µM). In the case of `Cc1nc(Nc2ccccc2)c2oc3ccc(Cl)cc3c2n1`, the solubility (kinetic) was less than 0.2 µg/mL. The value for `CC(=O)c1c(C)[n+]([O-])c2ccc3c(non3O)c12` was 25.5 µg/mL (≈ 103 µM); that for `CCOc1ccc(-c2nc(N)ncc2-c2ccc(Cl)cc2)c(O)c1` was 0.9 µg/mL (≈ 2.63 µM). The value for `COc1ccc(OCC(O)CN2C(=O)c3ccccc3C2=O)cc1` (configuration not stated) was greater than 49.1 µg/mL; that for `Cc1nc(N2CCOCC2)sc1C=O` was greater than 31.8 µg/mL; that for `CCOC(=O)Cn1c(=O)c(C#N)cn(C(C)C)c1=O` was greater than 39.8 µg/mL.

The compound `Cc1ccc2[nH]c(=O)c(CC(=O)O)c(-c3ccccc3)c2c1` returned a solubility (kinetic) greater than 44 µg/mL. `Cc1ccc(CCNC(=O)C2CCCN(S(C)(=O)=O)C2)cc1` (configuration not stated) had a solubility (kinetic) greater than 48.7 µg/mL. Turning to `CSc1ncccc1C(=O)Nc1ccccc1N1CCOCC1`, the solubility (kinetic) was greater than 49.4 µg/mL. Under `Cc1ccc(NC(=O)NCCN2CCCCC2)cc1` stands greater than 39.2 µg/mL. The value for `COc1ccc(N=Cc2cc(Cl)ccc2O)cc1Cl` was 18 µg/mL (≈ 60.8 µM). Under `CC(C)CCNC(=O)C1c2ccccc2Oc2ccccc21` stands less than 0.6 µg/mL; under `CC(C)C(=O)N1CCN(S(=O)(=O)c2ccc3ccccc3c2)CC1`, 23.2 µg/mL (≈ 67 µM); under `Cc1nc(Cl)c(C#N)c2c1CCCC2`, 17.5 µg/mL (≈ 84.7 µM). Compound `COc1ccc(OC)c(S(=O)(=O)NCCCc2ccccc2)c1` gave a solubility (kinetic) of 27.4 µg/mL (≈ 81.7 µM). The value for `CN(C)/C=C1\Oc2ccc3ccccc3c2C1=O` was less than 0.5 µg/mL; that for `S=C(NC1CC1)N1CCc2ccccc2C1` was greater than 34.9 µg/mL; that for `CCOC(=O)N1CCN(c2cc(=O)n(C)c(=O)n2C)CC1` was greater than 44.4 µg/mL. As for `Cc1cccc(C)c1N1C(=O)C(Cl)=C(N2CCCC2)C1=O`, the solubility (kinetic) was determined as 31.2 µg/mL (≈ 102 µM). For the compound `CCOc1ccc(CN2CCSCC2)cc1`, the solubility (kinetic) was determined as 18.5 µg/mL (≈ 77.9 µM). Under `COc1ccc2c(c1)nc(SCC(O)c1ccccc1)n2C` (configuration not stated) stands 41.3 µg/mL (≈ 131 µM). The value for `CCc1ccc(NC(=S)NCc2cccnc2)cc1` was 36.9 µg/mL (≈ 136 µM). In the case of `Cl.Oc1ccccc1CNCC12CC3CC(CC(C3)C1)C2`, the kinetic solubility is greater than 46.2 µg/mL. The value for `CCC1CCC(N2CCN(c3ccc([N+](=O)[O-])cc3)CC2)CC1` (configuration not stated) was 8.9 µg/mL (≈ 28 µM). The value for `O=C(COC(=O)CC1CCCC1)Nc1ccccc1[N+](=O)[O-]` was 12.1 µg/mL (≈ 39.5 µM); that for `O=C(CC(c1ccccc1)c1ccco1)N1CCCCC1` (configuration not stated) was greater than 42.5 µg/mL; that for `O=C(NCc1ccncc1)NC1CCCCC1` was greater than 35 µg/mL.

Compound `COc1ccc(C(=O)COc2ccccc2C#N)cc1` displayed a kinetic solubility of 3.6 µg/mL (≈ 13.5 µM). The value for `COc1cccc(-c2nc(=S)c3c(o2)CCCC3)c1` was 12.1 µg/mL (≈ 44.3 µM); that for `COCCn1c(/C=C/c2ccccc2)nc2ccccc21` was greater than 41.8 µg/mL; that for `CN(C)c1ccc(NC(=O)CN2CCN(c3ccc(F)cc3)CC2)cc1` was 2.5 µg/mL (≈ 7.01 µM). Under `c1ccc(-c2ccccc2OCCCCn2ccnc2)cc1` stands 31.3 µg/mL (≈ 107 µM); under `CCNC(=S)Nc1ccc(OCc2nc3ccccc3s2)cc1`, 2.8 µg/mL (≈ 8.15 µM); under `COC(=O)CNC(=O)COC(=O)Cc1ccc(Cl)cc1`, greater than 45 µg/mL. Under `CCOc1cc(N2CCOCC2)c(OCC)cc1NC(=O)C(C)(C)C` stands greater than 52.6 µg/mL; under `Cc1cccc(-n2c(-c3ccc(Br)o3)n[nH]c2=S)c1`, greater than 50.4 µg/mL. Compound `Cc1ccc(S(=O)(=O)N(C)CC(=O)Nc2cccnc2)cc1` had a solubility (kinetic) of 41.5 µg/mL (≈ 130 µM).

As to `CCCCNC(=S)N1CCn2cccc2C1c1ccc(F)cc1` (configuration not stated), the solubility (kinetic) came out at 10.3 µg/mL (≈ 31.1 µM). The value for `O=C(O)CCCCNS(=O)(=O)/C=C/c1ccccc1` was greater than 42.5 µg/mL; that for `Cc1cccc(NC(=O)c2ccc3c(c2)CCN3S(C)(=O)=O)c1` was 37.5 µg/mL (≈ 113 µM). Under `CCCCN(C)c1c(N2CCC(C(=O)OCC)CC2)c(=O)c1=O` stands greater than 48.4 µg/mL; under `COc1ccc(NC(=O)c2cnc(SC)nc2C)c(OC)c1`, greater than 47.9 µg/mL. Under `O=C(Nc1ccccn1)Nc1ccccc1[N+](=O)[O-]` stands 2.9 µg/mL (≈ 11.2 µM); under `COc1cc(N=c2ssnc2Cl)c(OC)cc1Cl`, 15.6 µg/mL (≈ 48.3 µM); under `COc1ccc(C)cc1NC(=O)CSCc1ccccc1C`, 8.6 µg/mL (≈ 27.3 µM).

In turn, `Cc1cc(C(=O)NC2CCCC(C)C2C)c2ccccc2n1` (configuration not stated) yielded a solubility (kinetic) of 18.9 µg/mL (≈ 63.8 µM). Under `CC1(C(=O)OCC(=O)Nc2ccc(Cl)cn2)CC1(Cl)Cl` (configuration not stated) stands greater than 50.6 µg/mL; under `Cn1c(N)c(C(=O)COC(=O)CCC2CCCC2)c(=O)n(C)c1=O`, greater than 50.6 µg/mL. The value for `O=C(O)CCCC(=O)Nc1cc([N+](=O)[O-])ccc1O` was 35.8 µg/mL (≈ 133 µM). `Cc1[nH]c2ccccc2c1/C=C(\C#N)C(=O)NCC1CCCO1` (configuration not stated) returned a solubility (kinetic) of 20.6 µg/mL (≈ 66.6 µM). The value for `O=C(O)CCCCCNC(=O)c1ccc(C(=O)NCCCCCC(=O)O)cc1` was 53.9 µg/mL (≈ 137 µM).

For the compound `O=C(COC(=O)c1ccc2ccccc2n1)c1ccccc1`, the solubility (kinetic) is 42.3 µg/mL (≈ 145 µM). Under `Cc1ccc(SCC(=O)NC2CCCCCC2)cc1` stands greater than 41.6 µg/mL.
